Assay results: ChEMBL document CHEMBL4627246, “Pyroglutamide-Based P2X7 Receptor Antagonists Targeting Inflammatory Bowel Disease” (J Med Chem, 2020)

Assays:
Type in all cases: cell-based
[1] = system: MDA-MB-468; test: Cytotoxicity against human MDA-MB-468 cells assessed as effect on cell growth at 10 uM incubated for 48 hrs by sulforhodamine B assay; details: mda-mb-468, 48 h
[2] = system: SF-268; test: Cytotoxicity against human SF268 cells assessed as effect on cell growth at 10 uM incubated for 48 hrs by sulforhodamine B assay; details: sf-268, 48 h
[3] = system: DU-145; test: Cytotoxicity against human DU145 cells assessed as effect on cell growth at 10 uM incubated for 48 hrs by sulforhodamine B assay; details: du-145, 48 h
[4] = system: HCT-116; test: Cytotoxicity against human HCT116 cells assessed as effect on cell growth at 10 uM incubated for 48 hrs by sulforhodamine B assay; details: hct-116, 48 h
[5] = system: HCT-15; test: Cytotoxicity against human HCT15 cells assessed as effect on cell growth at 10 uM incubated for 48 hrs by sulforhodamine B assay; details: hct-15, 48 h
[6] = system: EKVX; test: Cytotoxicity against human EKVX cells assessed as effect on cell growth at 10 uM incubated for 48 hrs by sulforhodamine B assay
[7] = system: MCF7; test: Cytotoxicity against human MCF7 cells assessed as effect on cell growth at 10 uM incubated for 48 hrs by sulforhodamine B assay; details: mcf7, 48 h
[8] = system: Malme-3M; test: Cytotoxicity against human MALME-3M cells assessed as effect on cell growth at 10 uM incubated for 48 hrs by sulforhodamine B assay
[9] = system: SK-MEL-5; test: Cytotoxicity against human SK-MEL-5 cells assessed as effect on cell growth at 10 uM incubated for 48 hrs by sulforhodamine B assay; details: sk-mel-5, 48 h
[10] = system: PC-3; test: Cytotoxicity against human PC3 cells assessed as effect on cell growth at 10 uM incubated for 48 hrs by sulforhodamine B assay; details: pc-3, 48 h
[11] = system: U-251; test: Cytotoxicity against human U251 cells assessed as effect on cell growth at 10 uM incubated for 48 hrs by sulforhodamine B assay; details: u-251, 48 h
[12] = system: OVCAR-5; test: Cytotoxicity against human OVCAR5 cells assessed as effect on cell growth at 10 uM incubated for 48 hrs by sulforhodamine B assay; details: ovcar-5, 48 h
[13] = system: HOP-92; test: Cytotoxicity against human HOP92 cells assessed as effect on cell growth at 10 uM incubated for 48 hrs by sulforhodamine B assay; details: hop-92, 48 h
[14] = system: NCI-H322M; test: Cytotoxicity against human NCI-H322M cells assessed as effect on cell growth at 10 uM incubated for 48 hrs by sulforhodamine B assay
[15] = system: NCI-H226; test: Cytotoxicity against human NCI-H226 cells assessed as effect on cell growth at 10 uM incubated for 48 hrs by sulforhodamine B assay; details: nci-h226, 48 h
[16] = system: M14; test: Cytotoxicity against human M14 cells assessed as effect on cell growth at 10 uM incubated for 48 hrs by sulforhodamine B assay; details: m14, 48 h
[17] = system: MDA-MB-231; test: Cytotoxicity against human MDA-MB-231 cells assessed as effect on cell growth at 10 uM incubated for 48 hrs by sulforhodamine B assay; details: mda-mb-231, 48 h
[18] = system: UACC-62; test: Cytotoxicity against human UACC62 cells assessed as effect on cell growth at 10 uM incubated for 48 hrs by sulforhodamine B assay; details: uacc-62, 48 h
[19] = system: HL-60(TB); test: Cytotoxicity against human HL-60(TB) cells assessed as effect on cell growth at 10 uM incubated for 48 hrs by sulforhodamine B assay
[20] = system: 786-0; test: Cytotoxicity against human 786-0 cells assessed as effect on cell growth at 10 uM incubated for 48 hrs by sulforhodamine B assay; details: 786-0, 48 h

Measured: Activity

CN1C(=O)CC[C@H]1C(=O)NCc1cc(C(F)(F)F)ccc1Cl
Non-Toxic: all assays above

O=C1N[C@H](C(=O)NCc2ccc(Cl)cc2Cl)CO1
Non-Toxic: all assays above

COc1ccc(NC(=O)[C@@H]2C/C(=C\N(C)C)C(=O)N2)cc1
Non-Toxic: all assays above

COc1ccc(N2C(=O)[C@@H]3C/C(=C\N(C)C)C(=O)N3C2N(C)C)cc1 (stereo not given in full)
Non-Toxic: all assays above

O=C(NCc1ccccc1Cl)[C@@H]1CCC(=O)N1Cc1ccccc1Cl
Non-Toxic: all assays above

O=C(NCc1ccc(Cl)cc1Cl)[C@@H]1CCC(=O)N1c1cncs1
Non-Toxic: all assays above

COc1ccc(N2C(=O)CC[C@H]2C(=O)NCc2ccc(Cl)cc2Cl)cc1
Non-Toxic: all assays above

O=C(NCc1ccccc1Cl)[C@@H]1CCC(=O)N1Cc1ccc(Cl)cc1
Non-Toxic: all assays above
